Values after ≈ are worked out from the molar mass of the structure shown. “Also recorded” adds a separate entry of the source.
Assays:
Acinetobacter sp. 488 = assay: MIC, micro broth dilution in Muller Hinton broth (CLSI), Table 1B; type: cell-based; conditions: read-out: Minimum Inhibitory Concentration
Protocol: (§1) Besifloxacin HCL was tested against ampicillin and cefotaxime (3rd generation cephalosporin) susceptible and resistant gram-negative bacterial strains involved in GNF (gram negative folliculitis) by broth dilution method as per the Clinical & Laboratory Standards Institutes (CLSI) guidelines. MIC assay was performed in 96 well plates by micro broth dilution method, in 96 well plates, all the wells were added with 100 μl of sterilized Muller Hinton broth No: 2 cation broth (HiMedia, India). The initial stock of test compounds (1 mg/ml) were prepared in dimethyl sulfoxide (DMSO) and further dilutions were made in culture broth to get the desirable concentration. Then 100 μl of broth containing test compounds were initially added to the first column's wells and then serial dilution was performed up to well of 10th column. Wells of 11th and 12th column served as a positive and negative control respectively. Finally, 100 μl of inoculum (0.5 McFarland equal bacterial suspension was 100 times diluted in culture broth) was added to all the wells. Plates were incubated at 37° C. for 18-24 hrs. After incubation, MIC of each test compound was determined by observing the lowest concentration of test compound that has no visual growth compared to growth control. Minimum inhibitory concentration of besifloxacin, ampicillin and cefotaxime against gram negative bacterial strains were shown in Table 1.

Enterobacter sp. 1 = assay: as above; type: cell-based; conditions: read-out: Minimum Inhibitory Concentration
Protocol: as §1

Enterobacter sp. 2 = assay: as above; type: cell-based; conditions: read-out: Minimum Inhibitory Concentration
Protocol: as §1

Enterobacter sp. 523 = assay: as above; type: cell-based; conditions: read-out: Minimum Inhibitory Concentration
Protocol: as §1

Enterobacter sp. 532 = assay: as above; type: cell-based; conditions: read-out: Minimum Inhibitory Concentration
Protocol: as §1

Escherichia coli 591 = assay: as above; type: cell-based; conditions: read-out: Minimum Inhibitory Concentration
Protocol: as §1

Escherichia coli 592 = assay: as above; type: cell-based; conditions: read-out: Minimum Inhibitory Concentration
Protocol: as §1

Klebsiella sp. 498 = assay: as above; type: cell-based; conditions: read-out: Minimum Inhibitory Concentration
Protocol: as §1

Klebsiella sp. 512 = assay: as above; type: cell-based; conditions: read-out: Minimum Inhibitory Concentration
Protocol: as §1

Pseudomonas sp. 537 = assay: as above; type: cell-based; conditions: read-out: Minimum Inhibitory Concentration
Protocol: as §1

Pseudomonas sp. 556 = assay: as above; type: cell-based; conditions: read-out: Minimum Inhibitory Concentration
Protocol: as §1

[1] = system: A. baumannii CCARM 12001 (Quinolone resistant strain); assay: MIC, micro broth dilution (CLSI), Table 1A; type: cell-based; conditions: Acinetobacter baumannii, CCARM12001
Protocol: (§2) MIC of besifloxacin and other antibiotics molecules were determined by micro broth dilution method as per the Clinical and Laboratory Standards Institute (CLSI) guideline. MIC assay is the determinant of the inherent anti-microbial potency of a particular molecule. For preparing inoculum, bacterial strains were cultured in Brain Heart Infusion Agar (BHIA) at 37° C. for 24 hours. […] For bacterial inoculum, bacterial culture turbidity was adjusted to 0.1 OD at 600 nm in UV-Visual spectrophotometer (approximately 1.5×10^8 cells/ml) and further diluted (100 times with sterile BHI broth). Diluted bacterial suspension (100 μl) was added to each well except sterility control wells (column 12 of 96 well plate). Column 11 of 96 well plate was used as growth control and vehicle control. The plates were incubated at 37° C. for 24 h. The MIC of the test compounds were determined by observing the lowest concentration of test compound that prevented the visual bacterial growth.

[2] = system: A. baumannii CCARM 12020 (multi-drug resistant, quinolone susceptible); assay: MIC, micro broth dilution (CLSI), Table 1A; type: cell-based; conditions: Acinetobacter baumannii, CCARM12020
Protocol: as §2

[3] = system: A. haumannii ATCC 19606 (wild type); assay: MIC, micro broth dilution (CLSI), Table 1A; type: cell-based; conditions: Acinetobacter baumannii, ATCC19606
Protocol: as §2

[4] = system: E. coli ATCC BAA 196 (multi-drug resistant strain); assay: MIC, micro broth dilution (CLSI), Table 1A; type: cell-based; conditions: Escherichia coli, BAA196
Protocol: as §2

[5] = system: E. coli MTCC 1687 (wild type); assay: MIC, micro broth dilution (CLSI), Table 1A; type: cell-based; conditions: Escherichia coli, MTCC1687
Protocol: as §2

[6] = system: K. pneumoniae ATCC 13883 (wild type); assay: MIC, micro broth dilution (CLSI), Table 1A; type: cell-based; conditions: Klebsiella pneumoniae, ATCC13883
Protocol: as §2

[7] = system: P. aeruginosa ATCC 27853 (wild type); assay: MIC, micro broth dilution (CLSI), Table 1A; type: cell-based; conditions: Pseudomonas aeruginosa, ATCC27853
Protocol: as §2

[8] = system: P. aeruginosa CCARM 2204 (multi-drug resistant, quinolone susceptible); assay: MIC, micro broth dilution (CLSI), Table 1A; type: cell-based; conditions: Pseudomonas aeruginosa, CCARM2204
Protocol: as §2

[9] = system: E. aerogenes M2-1 (clinical isolate); assay: MIC, micro broth dilution (CLSI), Table 1A; type: cell-based, Enterobacter aerogenes; conditions: Klebsiella aerogenes
Protocol: as §2

[10] = system: E. aerogenes NCIM 5139 (wild type); assay: MIC, micro broth dilution (CLSI), Table 1A; type: cell-based, Enterobacter aerogenes; conditions: Klebsiella aerogenes, NCIM5139
Protocol: as §2

P. acnes V3-1 = assay: MIC against bacteria isolated from acne lesions, Table 2; type: cell-based, Propionibacterium acnes; conditions: Cutibacterium acnes, V31; P. acnes V3-1, isolated from acne lesions; read-out: Minimum Inhibitory Concentration
Protocol: as §2
(§3) Different skin resident bacteria were isolated from acne lesions of moderate to severe acne patients.

[11] = system: Bacillus megaterium M1-2.; assay: as above; type: cell-based; conditions: Priestia megaterium, M12., read-out: Minimum Inhibitory Concentration
Protocol: as §2, §3

[12] = system: Dermatobacter hominis S11-2; assay: as above; type: cell-based; conditions: S112; Dermatobacter hominis S11-2, isolated from acne lesions; read-out: Minimum Inhibitory Concentration
Protocol: as §2, §3

[13] = system: Enterobacter aerogenes M2-1; assay: as above; type: cell-based; conditions: Klebsiella aerogenes, M21; Enterobacter aerogenes M2-1, isolated from acne lesions; read-out: Minimum Inhibitory Concentration
Protocol: as §2, §3

K. pneumoniae S6-1 = assay: as above; type: cell-based; conditions: Klebsiella pneumoniae, S61; K. pneumoniae S6-1, isolated from acne lesions; read-out: Minimum Inhibitory Concentration
Protocol: as §2, §3

Kocuria sp. S18-1 = assay: as above; type: cell-based; conditions: SP.S181; Kocuria sp. S18-1, isolated from acne lesions; read-out: Minimum Inhibitory Concentration
Protocol: as §2, §3

Microbacterium sp. S20-2 = assay: as above; type: cell-based; conditions: Microbacterium sp. S20-2, isolated from acne lesions
Protocol: as §2, §3

P. avidum S3-1 = assay: as above; type: cell-based; conditions: Cutibacterium avidum, S31; P. avidum S3-1, isolated from acne lesions; read-out: Minimum Inhibitory Concentration
Protocol: as §2, §3

S. epidermidis S1-1 = assay: as above; type: cell-based; conditions: Staphylococcus epidermidis, S11; S. epidermidis S1-1, isolated from acne lesions; read-out: Minimum Inhibitory Concentration
Protocol: as §2, §3

[14] = system: Staphylococcus haemolyticus M1-1; assay: as above; type: cell-based; conditions: M11; Staphylococcus haemolyticus M1-1, isolated from acne lesions; read-out: Minimum Inhibitory Concentration
Protocol: as §2, §3

Blastococcus sp. S21A-2 = type: cell-based; conditions: Blastococcus sp. S21A-2, isolated from acne lesions
Protocol: as §2, §3

[15] = system: microorganisms that cause gram-negative folliculitis; assay: MIC, summary statements on gram-negative bacteria involved in GNF; type: cell-based; conditions: for Activity against gram-negative bacterial strains involved in GNF (in words): irrespective of response to other conventional antibiotics or quinolones, ampicillin/cefotaxime susceptible and resistant strains
Protocol: as §2, §1

[16] = Skin penetration/retention on human abdominal skin, Franz-type diffusion cells; type: in vitro ADME; conditions: human epidermal membranes, 12 hr, approximately 10 mg/cm^2 of approximately 1.0% formulation
Protocol: Besifloxacin gel and cream containing suspended besifloxacin were tested for skin retention study on human abdominal skin. Besifloxacin gel and cream were applied over a 12 hr application period. Heat-separated epidermal membranes from a single donor were mounted in horizontal Franz-type diffusion cells (exposed surface area 1.33 cm2) over a receptor solution of phosphate buffered saline, pH 7.4 containing 5% ethanol to facilitate solubilisation of any material penetrating the skin. Cells were maintained at 35° C. and receptor solution was stirred throughout. Formulations containing approximately 1.0% besifloxacin w/w and applied at a dose of approximately 10 mg/cm^2. The samples of the receptor solution were taken at times up to 12 hrs and extracts from surface swabs, stratum corneum tape strips and residual epidermis were obtained at the end of the experiment at 12 hrs. All samples were analysed by validated LCMS.
Besifloxacin gel containing suspended besifloxacin was tested for skin retention study on human abdominal skin. Testing procedure was similar to example 27.

[17] = system: skin resident bacteria isolated from acne lesions; assay: MIC, summary statements on skin resident bacteria of acne patients; type: cell-based
Text: Moreover, as the MIC values are low and within a narrow range, the chance of future resistance generation due to sub optimal drug delivery in skin is also substantially lower.
Different skin resident bacteria were isolated from acne lesions of moderate to severe acne patients. As expected, P. acnes and S. epidermidis were two most prevalent species. Members of the skin microbiomes were of diverse nature. Most of the genus were gram positive, but few of them, like Klebsiella, were gram negative. Most of them were aerobic, but few, like P. acnes, were anaerobic in nature. […] Even if they are present in low numbers in microbiomes, they can act as reservoirs of resistance against antibiotic of choice which may in the log run affect the prognosis of GNF.

SMILES | MIC (Acinetobacter sp. 488) [µg/mL] | MIC (Enterobacter sp. 1) [µg/mL] | MIC (Enterobacter sp. 2) [µg/mL] | MIC (Enterobacter sp. 523) [µg/mL] | MIC (Enterobacter sp. 532) [µg/mL] | MIC (Escherichia coli 591) [µg/mL] | MIC (Escherichia coli 592) [µg/mL] | MIC (Klebsiella sp. 498) [µg/mL] | MIC (Klebsiella sp. 512) [µg/mL] | MIC (Pseudomonas sp. 537) [µg/mL] | MIC (Pseudomonas sp. 556) [µg/mL] | MIC (P. acnes V3-1) [µg/mL] | MIC [11] [µg/mL] | MIC [12] [µg/mL] | MIC [13] [µg/mL] | MIC (K. pneumoniae S6-1) [µg/mL] | MIC (Kocuria sp. S18-1) [µg/mL] | Minimum Inhibitory Concentration (Microbacterium sp. S20-2) [µg/mL] | MIC (P. avidum S3-1) [µg/mL] | MIC (S. epidermidis S1-1) [µg/mL] | also measured
CO/N=C(\C(=O)N[C@@H]1C(=O)N2C(C(=O)O)=C(COC(C)=O)CS[C@H]12)c1csc(N)n1 [Cefotaxime] | > 128 | 128 (≈ 281 µM) | 0.5 (≈ 1.1 µM) | 128 (≈ 281 µM) | 64 (≈ 141 µM) | < 0.25 | 128 (≈ 281 µM) | 64 to 128 (≈ 141 to 281 µM) | < 0.25 | 16 (≈ 35.1 µM) | 4 (≈ 8.78 µM) |  |  |  |  |  |  |  |  |  | 
N[C@@H]1CCCCN(c2c(F)cc3c(=O)c(C(=O)O)cn(C4CC4)c3c2Cl)C1 [Besifloxacin] | 2 (≈ 5.08 µM) | 16 (≈ 40.6 µM) | 1 (≈ 2.54 µM) | 0.5 (≈ 1.27 µM) | 16 (≈ 40.6 µM) | 0.125 (≈ 0.317 µM) | 0.5 (≈ 1.27 µM) | 16 (≈ 40.6 µM) | 0.25 (≈ 0.635 µM) | 1 (≈ 2.54 µM) | 1 (≈ 2.54 µM) | 0.5 (≈ 1.27 µM) | 0.02 (≈ 0.0508 µM) | 1 (≈ 2.54 µM) | 0.25 (≈ 0.635 µM) | 1 (≈ 2.54 µM) | 0.5 (≈ 1.27 µM) | 0.5 | 0.5 (≈ 1.27 µM) | 0.25 (≈ 0.635 µM) | MIC [1]: 2 µg/mL (≈ 5.08 µM); MIC [2]: 4 µg/mL (≈ 10.2 µM); MIC [3]: 1 µg/mL (≈ 2.54 µM); MIC [4]: 1 µg/mL (≈ 2.54 µM); MIC [5]: 0.125 µg/mL (≈ 0.317 µM); MIC [6]: 0.25 µg/mL (≈ 0.635 µM); MIC [7]: 0.5 µg/mL (≈ 1.27 µM); MIC [8]: 4 µg/mL (≈ 10.2 µM); MIC [9]: 0.125 µg/mL (≈ 0.317 µM); MIC [10]: 0.125 µg/mL (≈ 0.317 µM); MIC [14]: 0.13 µg/mL (≈ 0.33 µM); Minimum Inhibitory Concentration (Blastococcus sp. S21A-2): 0.06 µg/mL; Activity against gram-negative bacterial strains involved in GNF (in words) [15]: very effective; also recorded: efficacious; Activity against gram-negative bacterial strains involved in GNF (in words) ([15]; listed as besifloxacin): susceptible; MIC ([15]; range over strains, read-out: MIC of besifloxacin against microorganisms that cause gram-negative folliculitis): 0.125 to 16 µg/mL; MIC better (lower) compared with conventional antibiotics ([15]; vs cefotaxime, ampicillin, clindamycin, tetracycline and erythromycin): at least 50%; besifloxacin recovered from receptor solution [16]: negligible amounts; Activity against skin resident bacteria isolated from acne lesions (in words) ([17]; Table 2 isolates): potent antibacterial activity; isolates demonstrating resistance to besifloxacin ([17]; micro broth dilution assay, acne patients or healthy individuals): none
CN(C)[C@@H]1C(O)=C(C(N)=O)C(=O)[C@@]2(O)C(O)=C3C(=O)c4c(O)cccc4[C@@](C)(O)[C@H]3C[C@@H]12 [Tetracycline] |  |  |  |  |  |  |  |  |  |  |  | 0.3 (≈ 0.675 µM) | 0.06 (≈ 0.135 µM) | > 4 | 2 (≈ 4.5 µM) | > 4 | 1 (≈ 2.25 µM) | 2 | 1 (≈ 2.25 µM) | > 4 | MIC [14]: 0.25 µg/mL (≈ 0.563 µM); Minimum Inhibitory Concentration (Blastococcus sp. S21A-2): 0.5 µg/mL
